ChEMBL document CHEMBL1139984, “Potent and selective biphenyl azole inhibitors of adipocyte fatty acid binding protein (aFABP)” (Bioorg Med Chem Lett, 2007)

How the values were obtained:
[1] = target: Fatty acid-binding protein 5 (Homo sapiens, UniProt Q01469); test: Displacement of 1,8-ANS from eFABP by fluorescence based-assay
[2] = target: Fatty acid-binding protein, heart (Homo sapiens, UniProt P05413); test: Displacement of 1,8-ANS from mFABP by fluorescence based-assay
[3] = target: T1, Fatty acid-binding protein, adipocyte (Homo sapiens, UniProt P15090); test: Displacement of 1,8-ANS from aFABP by fluorescence based-assay
[4] = target: T1, Fatty acid-binding protein, adipocyte; test: Displacement of [3H]2,3-bis[(2,4-dichlorobenzyl)oxy]benzoic acid from aFABP
[5] = target: T1, Fatty acid-binding protein, adipocyte; test: Binding affinity to aFABP
[6] = species on record: Homo sapiens; test: Selectivity for aFABP over mFABP by 1,8-ANS fluorescence based-assay

T1 sequence (P15090 whole entry): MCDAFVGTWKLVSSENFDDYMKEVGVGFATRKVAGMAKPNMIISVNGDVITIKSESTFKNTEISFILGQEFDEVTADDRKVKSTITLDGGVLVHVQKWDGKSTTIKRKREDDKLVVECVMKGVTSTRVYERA
Sequence of Fatty acid-binding protein 5 (Q01469 whole entry): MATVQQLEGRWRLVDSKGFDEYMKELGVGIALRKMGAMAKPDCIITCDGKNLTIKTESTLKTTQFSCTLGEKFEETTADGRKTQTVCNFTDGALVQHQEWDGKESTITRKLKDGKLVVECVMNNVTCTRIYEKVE
Sequence of Fatty acid-binding protein, heart (P05413 whole entry): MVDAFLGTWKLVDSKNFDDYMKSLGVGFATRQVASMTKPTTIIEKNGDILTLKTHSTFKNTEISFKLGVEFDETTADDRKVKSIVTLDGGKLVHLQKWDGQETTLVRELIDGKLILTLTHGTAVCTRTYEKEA

| Structure (SMILES) | Ki [1] [nM] | Ki [2] [nM] | Ki [3] [nM] | Ki [4] [nM] | Kd [5] [nM] | Ratio Ki [6] |
| --- | --- | --- | --- | --- | --- | --- |
| O=C(O)CNc1cccc(-c2ccccc2-c2nc(-c3ccccc3)c(-c3ccccc3)n2CC(=O)O)c1 | > 2000 | > 1000 | > 2000 | – | – | – |
| O=C(O)CNc1cccc(-c2ccccc2-c2nc(-c3ccccc3)c(-c3ccccc3)[nH]2)c1 | > 2000 | > 1000 | 18 | 300 | – | – |
| CC(C)Cn1c(-c2ccccc2-c2cccc(NCC(=O)O)c2)nc(-c2ccccc2)c1-c1ccccc1 | > 2000 | > 1000 | 130 | – | – | – |
| O=C(O)CCCCOc1ccccc1-c1nc(-c2ccccc2)c(-c2ccccc2)o1 | > 2000 | 32 | 58 | – | – | – |
| CCCCCCCC/C=C\CCCCCCCC(=O)O [OLEIC ACID] | 248 | – | – | – | – | – |
| O=S(=O)(O)c1cccc2cccc(Nc3ccccc3)c12 | – | – | – | 1000 | 150 | – |
| CCc1c(-c2ccccc2)c(-c2ccccc2)nn1-c1ccccc1-c1cccc(C(O)C(=O)O)c1 (stereo not given) | 550 | 360 | 28 | – | – | – |
| [3H]c1c(Cl)ccc(COc2cccc(C(=O)O)c2OCc2ccc(Cl)c([3H])c2Cl)c1Cl | 2 | 4 | 2 | – | 21 | – |

Next, values leading:

| Ki [1] [nM] | Ki [2] [nM] | Ki [3] [nM] | Ki [4] [nM] | Kd [5] [nM] | Ratio Ki [6] | Structure (SMILES) |
| --- | --- | --- | --- | --- | --- | --- |
| – | 110 | 650 | – | – | – | CCc1c(-c2ccccc2)c(-c2ccccc2)nn1-c1ccccc1-c1cccc(C(=O)O)c1 |
| > 2000 | > 1000 | 3.4 | 13 | – | – | CCn1c(-c2ccccc2-c2cccc(NCC(=O)O)c2)nc(-c2ccccc2)c1-c1ccccc1 |
| – | > 1000 | < 2 | 3.3 | – | – | CCn1c(-c2ccccc2-c2cccc(OCC(=O)O)c2)nc(-c2ccccc2)c1-c1ccccc1 |
| – | > 1000 | < 2 | 13 | – | – | Cn1c(-c2ccccc2-c2cccc(OCC(=O)O)c2)nc(-c2ccccc2)c1-c1ccccc1 |
| – | 220 | 3.5 | 32 | – | – | CCc1c(-c2ccccc2-c2cccc(OCC(=O)O)c2)oc(-c2ccccc2)c1-c1ccccc1 |
| > 2000 | > 1000 | 12 | – | – | – | O=C(O)COc1cccc(-c2ccccc2-c2cc(-c3ccccc3)c(-c3ccccc3)[nH]2)c1 |
| > 2000 | > 1000 | 36 | – | – | – | O=C(O)COc1cccc(-c2ccccc2-c2cc(-c3ccccc3)c(-c3ccccc3)o2)c1 |
| > 2000 | > 1000 | < 2 | 8.7 | – | – | O=C(O)COc1cccc(-c2ccccc2-c2nc(-c3ccccc3)c(-c3ccccc3)n2CCF)c1 |
| > 2000 | > 1000 | 9.3 | – | – | – | O=C(O)COc1cccc(-c2ccccc2-c2nc(-c3ccccc3)c(-c3ccccc3)[nH]2)c1 |
| > 2000 | > 1000 | 6 | 95 | – | 170 | O=C(O)COc1cccc(-c2ccccc2-c2nc(-c3ccccc3)c(-c3ccccc3)o2)c1 |
| > 2000 | > 1000 | 2.7 | 48 | – | – | Cn1c(-c2ccccc2-c2cccc(NCC(=O)O)c2)nc(-c2ccccc2)c1-c1ccccc1 |
